{"source": "patent US20240247235A1", "about": "“niPSCs DERIVED FROM SOMATIC CELLS” (UNIVERSITA' DEGLI STUDI DI PADOVA, priority 2018, published 2024)", "key": {"primed iPS cells": {"system": "primed iPS cells", "assay": "Expansion of mixed primed- and naïve-like colonies generated in CCC with FGF receptor inhibitor", "format": "cell-based, human", "details": "expanded with inhibitor", "procedure": "Side-by-side experiments comparing μF and CCC were performed. Generation of niPSCs in μF was robust (100% of channels contained colonies, with an efficiency of 3.7%+1.0 and 3.1%+0.4 from BJ and HFF-1, respectively, FIG. 9a). Conversely, in CCC only 25% of wells contained naïve-like colonies, with efficiency of 0.2% and 0.04%."}, "Human fibroblasts": {"system": "Human fibroblasts", "assay": "mmRNA (OSKMN) reprogramming of fibroblasts to naïve-like iPSC colonies in microfluidics", "format": "cell-based", "procedure": "Microfluidic channels were coated with 25 μg/ml fibronectin (Sigma Aldrich) for 30 min at room temperature. Somatic cells were seeded on day −1 of reprogramming at 25 cells/mm^2 for feeder-free reprogramming in DMEM/10% FBS. Such seeding density allowed robust proliferation and survival of somatic cells during reprogramming. On day 0, 2 hours before the first mmRNA transfection, the medium was changed to PRM, a medium optimized from mRNA transfection and previously used for derivation of primed PSCs (StemMACS ReproBREW XF, Miltenyi biotec). When indicated, 1 μM CH, 1 μM CH and 5 μM Ri were added to PRM. Transfection period is of 9 h. Cells were transfected daily at 9 am, and fresh PRM was given daily at 6 pm. On day 6, medium was changed with a naïve supporting medium according to table 1 and the same regime of transfection and fresh medium change was maintained until day 12. From day 0 to 12, media were supplemented with 200 ng/mL^−1 B18R (eBioscience). Transfections using a OSKMN+nGFP mmRNA mix (POU5F1, SOX2, KLF4, c-MYC, NANOG, nuclear GFP) were started on day 0 and daily repeated for 12 d. […]\nFreshly-derived colonies were then cultured for 3 days without mmRNAs (day 15) to allow their complete clearance, and analyzed in situ for naïve or primed associated markers. […] Success rate, measured as the percentage of microfluidic channels containing naïve-like colonies, was evaluated (FIG. 3c). […]"}}}
{"smiles": "CCN(CC)CCCCNc1ncc2cc(-c3cc(OC)cc(OC)c3)c(NC(=O)NC(C)(C)C)nc2n1", "note": "[PD173074]", "values": [{"measurement": "Effect on primed iPS cells in mixed primed/naïve culture", "setting": "primed iPS cells", "value": "primed iPS cells were eliminated"}]}
{"smiles": "C[C@@H](N)[C@H]1CC[C@H](C(=O)Nc2ccncc2)CC1", "note": "[ROCK inhibitor, Y27632]", "values": [{"measurement": "Effect on colony formation efficiency", "setting": "Human fibroblasts; added to reprogramming in 2iLGo+KSR, OSKMN mmRNA, microfluidics (FIG. 3c-e)", "value": "increased colony formation efficiency"}]}
{"smiles": "Cc1c[nH]c(-c2cnc(NCCNc3ccc(C#N)cn3)nc2-c2ccc(Cl)cc2Cl)n1", "note": "[CH, CHIR99021]", "values": [{"measurement": "Formed naïve-like colonies, inhibitor added to PRM during the first 6 days", "setting": "Human fibroblasts; PRM + 1 μM CHIR99021 days 0-6, then 2LiGo+KSR, compared with other inhibitor combinations (FIG. 3b)", "value": "Best results in term of formed colonies"}]}
